Experimental findings from patent US11820756B2, “Bradykinin B2 receptor antagonists” (Pharvaris Netherlands B.V., priority 2017, dated 2023) are described below.

For this assay, the target named is T1, human bradykinin B2 receptor (hB2R) (Homo sapiens, UniProt P30411).
T1 sequence (P30411 1-391): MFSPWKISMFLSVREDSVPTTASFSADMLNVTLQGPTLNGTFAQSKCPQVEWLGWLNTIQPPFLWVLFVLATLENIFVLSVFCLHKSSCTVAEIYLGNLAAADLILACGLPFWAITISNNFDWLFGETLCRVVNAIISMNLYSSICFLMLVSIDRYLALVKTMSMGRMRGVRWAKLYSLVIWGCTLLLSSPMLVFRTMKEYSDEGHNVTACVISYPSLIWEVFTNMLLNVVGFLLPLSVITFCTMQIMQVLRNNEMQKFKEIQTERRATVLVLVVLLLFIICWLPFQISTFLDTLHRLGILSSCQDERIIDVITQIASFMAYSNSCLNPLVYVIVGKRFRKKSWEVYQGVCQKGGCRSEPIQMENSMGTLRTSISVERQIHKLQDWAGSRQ
Description: cell-based human bradykinin B2 receptor calcium mobilization (hB2R-CaM) assay. The conditions noted are these: HTS041C cells, bradykinin at EC80, calcium mobilization; read-out: IC50-value towards human bradykinin B2 receptor (hB2R). The text has this: The following cell-based human bradykinin B2 receptor calcium mobilization (hB2R-CaM) assay was used to determine the antagonistic activity of compounds selected from the example compounds Nos. 1 to 168 towards human bradykinin B2 receptor (hB2R). The assay is defined herein as a standard in vitro B2 receptor activity assay, which can be used to determine IC50 values of the compounds according to the present invention, e. g. the compounds shown in Examples 1-11.
The antagonistic activity of compounds according to the present invention was investigated with the hB2R-CaM assay using the B2 Bradykinin Receptor Stable Cell Line HTS041C (Eurofins, St. Charles MO) and the FLIPR Calcium 6 Assay Kit (Molecular Devices, Wokingham, UK) according to the instructions of the providers. CaM assay measurements were performed with a Flexstation 3 System (Molecular Devices) which allows the precise addition of compounds (B2R antagonists) and bradykinin (B2R agonist) to the cells and adjacent continuous recording of the time-dependent CaM assay signals.
HTS041C cells were cultured in high glucose DMEM cell culture medium (Lonza) supplemented with 10% heat-inactivated FBS (PAN Biotech), 10 mM HEPES, Penicillin/Streptomycin (200 U/mL, 200 μg/mL), 1× non-essential amino acids (Lonza), and 250 μg/mL G418 (Invivogen) in cell incubator at 37° C. in a 5% CO2 atmosphere.
One day before the CaM assay experiments cells were seeded in 200 μL DMEM cell culture medium with reduced FBS (5%) and without G418 on clear bottom black 96 well plates (ThermoFisher #165305). Cell starvation was carried out by incubation (37° C., 5% CO2) of 70.000 cells/well for 24 h to 28 h. Immediately prior calcium dye-loading the medium was carefully aspirated and cells were washed with Hank's balanced salt solution (HBSS, Gibco) containing Ca^2+, Mg^2+ and 20 mM HEPES, adjusted to pH 7.4 (HBSS+). Calcium Dye Loading of the Cells:
For calcium dye-loading one FLIPR 6 assay aliquot was dissolved in 20 mL HBSS+. 150 μL of the dye loading solution was added to cell plate and incubated for 120 min at 37° C. and 5% CO2. After dye loading the cell plate was immediately transferred to the pre-warmed (37° C.) Flexstation 3 System for CaM assaying.
Freshly prepared compound (B2 receptor antagonists) dilution series (8 pt, n=2) and bradykinin (B2 receptor agonist) solution in non-binding plates (Costar) were transferred to the Flexstation System (source plate) shortly before starting the experiment. Bradykinin was added in EC80 concentration determined in n>3 preliminary experiments with 8 pt concentration response curves (n=8)). CaM assay was executed by Flexstation 3 System starting with recording of calcium-sensitive dye fluorescence in bottom-read Flex modus with ex/em=485 nm/525 nm, cut off(em)=[…]. After 20 s, 50 μL of 4-fold concentrated compound dilutions were added to the cells resulting in a final DMSO (Sigma) concentration of 0.1% in the cell plate. CaM signals were monitored for 80 s after additions for detection of potential agonistic activities. Prior to bradykinin stimulus compound- and vehicle-treated cells were incubated for 25 min at 37° C. within the Flexstation System. Then 50 μL of a 5-fold concentrated bradykinin solution (HBSS+, 0.1% DMSO) was added to trigger CaM signals (Read out: Max-Min values) which were measured for 80 s post bradykinin stimulus.
IC50 determinations were performed by 4 parameter logistic model curve fitting of the 8 pt (n=2) compound concentration response curves using XLFIT (IDBS) software.
Relative IC50 values of the test compounds were determined with the same hB2R-CaM assay as in Example 12.
As to `Cc1cc(-n2cc(F)cn2)c2cccc(OCc3c(Cl)cc(F)cc3[C@H](C)NC(=O)C(C)(C)C(F)(F)F)c2n1` [Compound 48], the IC50 is 51 to 250 nM.
The same measure for `Cc1cc(-n2cc(F)cn2)c2cccc(OCc3c(Cl)cc(F)cc3[C@H](C)NC(=O)CO)c2n1` [Compound 49]: 51 to 250 nM; for `CCC[C@H](O)C(=O)N[C@@H](C)c1cc(F)cc(Cl)c1COc1cccc2c(-n3cc(F)cn3)cc(C)nc12` [Compound 50]: 51 to 250 nM.
As to `Cc1cc(-n2cc(F)cn2)c2cccc(OCc3c(Cl)cc(F)cc3[C@H](C)NC(=O)C(C)OCC3CC3)c2n1` (stereo partly shown) [Compound 51], the IC50 was 51 to 250 nM.
Turning to `Cc1cc(-n2cc(F)cn2)c2cccc(OCc3c(Cl)cc(F)cc3[C@H](C)NC(=O)[C@@](C)(O)C(F)(F)F)c2n1` [Compound 52], the IC50 was 251 to 1000 nM.
To `Cc1cc(-n2cc(F)cn2)c2cccc(OCc3c(Cl)cc(F)cc3[C@H](C)NC(=O)[C@](C)(O)C(F)(F)F)c2n1` [Compound 53] belongs 251 to 1000 nM; to `Cc1cc(-n2cc(F)cn2)c2cccc(OCc3c(Cl)cc(F)cc3[C@H](C)NC(=O)C(C)C(F)(F)F)c2n1` (stereo partly shown) [Compound 54], 51 to 250 nM.
As for `CC(=O)C(=O)N[C@@H](C)c1cc(F)cc(Cl)c1COc1cccc2c(-n3cc(F)cn3)cc(C)nc12` [Compound 55], the IC50 lay in the range of 251 to 1000 nM.
`Cc1cc(-n2cc(F)cn2)c2cccc(OCc3c(Cl)cc(F)cc3[C@H](C)NC(=O)C3CCO3)c2n1` (stereo partly shown) [Compound 56]: the IC50 is no more than 50 nM.
As to `Cc1cc(-n2cc(F)cn2)c2cccc(OCc3c(Cl)cc(F)cc3[C@H](C)NC(=O)C3COC3)c2n1` [Compound 57], the IC50 was no more than 50 nM.
With `Cc1cc(-n2cc(F)cn2)c2cccc(OCc3c(Cl)cc(F)cc3[C@H](C)NC(=O)C3(C)COC3)c2n1` [Compound 58], the IC50 was no more than 50 nM.
To `Cc1cc(-n2cc(F)cn2)c2cccc(OCc3c(Cl)cc(F)cc3[C@H](C)NC(=O)[C@H](C)CO)c2n1` [Compound 59] belongs no more than 50 nM.
In the case of `Cc1cc(-n2cc(F)cn2)c2cccc(OCc3c(Cl)cc(F)cc3[C@H](C)NC(=O)C(C)(C)CO)c2n1` [Compound 60], the IC50 is no more than 50 nM.
For the molecule `Cc1cc(-n2cc(F)cn2)c2cccc(OCc3c(Cl)cc(F)cc3[C@H](C)NC(=O)[C@@H]3COC(C)(C)O3)c2n1` [Compound 61], the IC50 is no more than 50 nM.
In the case of `Cc1cc(-n2cc(F)cn2)c2cccc(OCc3c(Cl)cc(F)cc3[C@H](C)NC(=O)[C@H]3COC(C)(C)O3)c2n1` [Compound 62], the IC50 was in the range of 51 to 250 nM.
The same measure for `Cc1cc(-c2ncnn2C)c2cccc(OCc3c(Cl)cc(F)cc3[C@H](C)NC(=O)[C@@H](C)O)c2n1` [Compound 63]: no more than 50 nM; for `Cc1cc(-c2ncnn2C)c2cccc(OCc3c(Cl)cc(F)cc3[C@H](C)NC(=O)C(C)(C)O)c2n1` [Compound 64]: no more than 50 nM; for `Cc1cc(-n2cc(F)cn2)c2cccc(OCc3c(Cl)cc(F)cc3[C@H](C)NC(=O)C3CN(C)C3)c2n1` [Compound 65]: 251 to 1000 nM.
For `Cc1cc(-n2cc(F)cn2)c2cccc(OCc3c(Cl)cc(F)cc3[C@H](C)NC(=O)[C@@H](O)CCN)c2n1` [Compound 66], the IC50 was 51 to 250 nM.
The same measure for `Cc1cc(-n2cc(F)cn2)c2cccc(OCc3c(Cl)cc(F)cc3[C@H](C)NC(=O)[C@H](O)C(C)C)c2n1` [Compound 67]: 51 to 250 nM; for `Cc1cc(-n2cc(F)cn2)c2cccc(OCc3c(Cl)cc(F)cc3[C@H](C)NC(=O)C3CNC3)c2n1` [Compound 68]: 51 to 250 nM.
Regarding `COC(=O)[C@H](O)CC(=O)N[C@@H](C)c1cc(F)cc(Cl)c1COc1cccc2c(-n3cc(F)cn3)cc(C)nc12` [Compound 69], the IC50 lay within 51 to 250 nM.
To `COC(=O)[C@@H](O)CC(=O)N[C@@H](C)c1cc(F)cc(Cl)c1COc1cccc2c(-n3cc(F)cn3)cc(C)nc12` [Compound 70] belongs no more than 50 nM; to `Cc1cc(-n2cc(F)cn2)c2cccc(OCc3c(Cl)cc(F)cc3[C@H](C)NC(=O)C(CO)CO)c2n1` [Compound 71], no more than 50 nM.
Consider `Cc1cc(-n2cc(F)cn2)c2cccc(OCc3c(Cl)cc(F)cc3[C@H](C)NC(=O)[C@@H](O)CCN(C)C)c2n1` [Compound 72], for which the IC50 was in the range of 251 to 1000 nM.
`Cc1cc(-n2cc(F)cn2)c2cccc(OCc3c(Cl)cc(F)cc3[C@H](C)NC(=O)c3cocn3)c2n1` [Compound 82]: the IC50 was no more than 50 nM.
Consider `COCC(=O)N[C@@H](C)c1cc(F)cc(Cl)c1COc1cccc2c(-c3ncnn3C)cc(C)nc12` [Compound 83], for which the IC50 is no more than 50 nM.
As for `CCOCC(=O)N[C@@H](C)c1cc(F)cc(Cl)c1COc1cccc2c(-c3ncnn3C)cc(C)nc12` [Compound 84], the IC50 was no more than 50 nM.
As for `Cc1cc(-c2ncnn2C)c2cccc(OCc3c(Cl)cc(F)cc3[C@H](C)NC(=O)[C@@H](C)OC(F)F)c2n1` [Compound 85], the IC50 is no more than 50 nM.
Consider `Cc1cc(-n2cc(F)cn2)c2cccc(OCc3c(Cl)cc(F)cc3[C@H](C)NC(=O)c3cc(C)n(C)n3)c2n1` [Compound 86], for which the IC50 lay within 51 to 250 nM.
Turning to `Cc1cc(-n2cc(F)cn2)c2cccc(OCc3c(Cl)cc(F)cc3[C@H](C)NC(=O)c3c(C)noc3C)c2n1` [Compound 87], the IC50 was 51 to 250 nM.
For `Cc1cc(-n2cc(F)cn2)c2cccc(OCc3c(Cl)cc(F)cc3[C@H](C)NC(=O)c3cc(C)on3)c2n1` [Compound 88], the IC50 fell in the range of 51 to 250 nM.
For `Cc1cc(-n2cc(F)cn2)c2cccc(OCc3c(Cl)cc(F)cc3[C@H](C)NC(=O)c3cnoc3C)c2n1` [Compound 89], the IC50 lay in the range of 51 to 250 nM.
To `Cc1cc(-n2cc(F)cn2)c2cccc(OCc3c(Cl)cc(F)cc3[C@H](C)NC(=O)c3cncs3)c2n1` [Compound 90] belongs no more than 50 nM; to `Cc1cc(-n2cc(F)cn2)c2cccc(OCc3c(Cl)cc(F)cc3[C@H](C)NC(=O)c3ocnc3C)c2n1` [Compound 91], no more than 50 nM; to `Cc1cc(-n2cc(F)cn2)c2cccc(OCc3c(Cl)cc(F)cc3[C@H](C)NC(=O)c3coc(C)n3)c2n1` [Compound 92], no more than 50 nM.
To `Cc1cc(-n2cc(F)cn2)c2cccc(OCc3c(Cl)cc(F)cc3[C@H](C)NC(=O)[C@@H](C)OC(F)F)c2n1` [Compound 93] belongs 51 to 250 nM.
As to `Cc1cc(-n2ncnc2C)c2cccc(OCc3c(Cl)cc(F)cc3[C@H](C)NC(=O)c3cnco3)c2n1` [Compound 95], the IC50 is no more than 50 nM.
To `Cc1cc(-n2cnc(C)n2)c2cccc(OCc3c(Cl)cc(F)cc3[C@H](C)NC(=O)c3cnco3)c2n1` [Compound 96] belongs 51 to 250 nM.
The same measure for `Cc1cc(-n2ncnc2C)c2cccc(OCc3c(Cl)cc(F)cc3[C@H](C)NC(=O)[C@@H](C)O)c2n1` [Compound 97]: 51 to 250 nM; for `Cc1cc(-n2cnc(C)n2)c2cccc(OCc3c(Cl)cc(F)cc3[C@H](C)NC(=O)[C@@H](C)O)c2n1` [Compound 98]: 251 to 1000 nM; for `CC[C@@H](O)C(=O)N[C@@H](C)c1cc(F)cc(Cl)c1COc1cccc2c(-n3ncnc3C)cc(C)nc12` [Compound 99]: 51 to 250 nM.
In the case of `CC[C@@H](O)C(=O)N[C@@H](C)c1cc(F)cc(Cl)c1COc1cccc2c(-n3cnc(C)n3)cc(C)nc12` [Compound 100], the half-maximal inhibitory concentration (IC50) was 251 to 1000 nM.
